Data from the supplement of paper PMC10307832.

Tests used:
Experiment in all cases: relative viability (nuclei count vs DMSO), 5 days (fraction); higher = more cells survive
CUDC-101 + Tozasertib = compound: C#Cc1cccc(Nc2ncnc3cc(OC)c(OCCCCCCC(=O)NO)cc23)c1 [CUDC-101] + Cc1cc(Nc2cc(N3CCN(C)CC3)nc(Sc3ccc(NC(=O)C4CC4)cc3)n2)n[nH]1 [Tozasertib] (partner 0.1 µM)
In short: (§1)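 Lung cancer cell lines, seeded in 1536-well plates, were treated the following day by pin tool with a single drug or with five library-drug doses (not always all listed) in √10 steps on top of a fixed anchor-drug dose. Cells were fixed and nuclei stained in one step after 5 days, and nuclei were counted. Relative viability is the nuclei count for treated wells divided by that for vehicle wells, reported as medians of duplicate plates.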

CUDC-101 + Alpelisib = compound: C#Cc1cccc(Nc2ncnc3cc(OC)c(OCCCCCCC(=O)NO)cc23)c1 [CUDC-101] + Cc1nc(NC(=O)N2CCC[C@H]2C(N)=O)sc1-c1ccnc(C(C)(C)C(F)(F)F)c1 [Alpelisib] (partner 2 µM)
In short: as §1

[1] = compound: C1=CC=C2C(=C1)N=C(S2)C(C#N)C3=NC(=NC=C3)NCCC4=CN=CC=C4 + NC(=O)Nc1cc(-c2cccc(F)c2)sc1C(=O)N[C@H]1CCCNC1 [AZD7762] (partner 0.2 µM)
In short: as §1

CUDC-101 + AZD7762 = compound: C#Cc1cccc(Nc2ncnc3cc(OC)c(OCCCCCCC(=O)NO)cc23)c1 [CUDC-101] + NC(=O)Nc1cc(-c2cccc(F)c2)sc1C(=O)N[C@H]1CCCNC1 [AZD7762] (partner 0.2 µM)
In short: as §1

| Cell Line | relative viability (CUDC-101 + Tozasertib; first compound 0.01 µM) | relative viability (CUDC-101 + Tozasertib; first compound 0.03162 µM) | relative viability (CUDC-101 + Tozasertib; first compound 0.1 µM) | relative viability (CUDC-101 + Tozasertib; first compound 0.3162 µM) | relative viability (CUDC-101 + Tozasertib; first compound 1 µM) | relative viability (CUDC-101 + Alpelisib; first compound 0.01 µM) | relative viability (CUDC-101 + Alpelisib; first compound 0.03162 µM) | relative viability (CUDC-101 + Alpelisib; first compound 0.1 µM) | relative viability (CUDC-101 + Alpelisib; first compound 0.3162 µM) | relative viability (CUDC-101 + Alpelisib; first compound 1 µM) | relative viability ([1]; first compound 0.005 µM) | relative viability ([1]; first compound 0.01581 µM) | relative viability ([1]; first compound 0.05 µM) | relative viability ([1]; first compound 0.1581 µM) | relative viability ([1]; first compound 0.5 µM) | relative viability (CUDC-101 + AZD7762; first compound 0.01 µM) | relative viability (CUDC-101 + AZD7762; first compound 0.03162 µM) | relative viability (CUDC-101 + AZD7762; first compound 0.1 µM) | relative viability (CUDC-101 + AZD7762; first compound 0.3162 µM) | relative viability (CUDC-101 + AZD7762; first compound 1 µM) |
| --- | --- | --- | --- | --- | --- | --- | --- | --- | --- | --- | --- | --- | --- | --- | --- | --- | --- | --- | --- | --- |
| LOU-NH91 | 0.703 | 0.548 | 0.472 | 0.411 | 0.305 | 0.652 | 0.533 | 0.509 | 0.574 | 0.482 | 0.687 | 0.758 | 0.734 | 0.798 | 0.724 | 0.754 | 0.751 | 0.741 | 0.798 | 0.556 |
| LU99A | 0.273 | 0.269 | 0.242 | 0.277 | 0.273 | 0.584 | 0.603 | 0.518 | 0.433 | 0.263 | 0.444 | 0.469 |  | 0.343 | 0.262 | 0.301 | 0.297 | 0.247 | 0.198 | 0.104 |
| LXF-289 | 0.168 | 0.184 | 0.219 | 0.211 | 0.143 | 0.991 | 1.08 | 0.994 | 1.07 | 0.815 | 1.01 | 1.17 | 1.06 | 1.27 | 0.982 | 1.08 | 1.13 | 1.02 | 1.07 | 0.811 |
| NCI-H23 | 0.34 | 0.315 | 0.288 | 0.384 | 0.574 | 0.775 | 0.592 | 0.727 | 0.652 | 0.718 |  | 0.239 | 0.254 | 0.175 | 0.249 | 0.293 | 0.161 | 0.282 | 0.276 | 0.226 |
| NCI-H322M | 0.477 | 0.476 | 0.45 | 0.413 | 0.339 | 0.775 | 0.704 | 0.725 | 0.733 | 0.725 | 0.522 | 0.522 | 0.436 | 0.564 | 0.56 | 0.558 | 0.428 | 0.496 | 0.345 | 0.353 |
| NCI-H358 | 0.103 | 0.117 | 0.127 | 0.101 | 0.114 | 1.21 | 0.871 | 0.926 | 0.71 | 0.415 | 0.579 | 0.492 |  | 0.592 | 0.496 | 0.565 | 0.493 | 0.518 | 0.261 | 0.237 |
| NCI-H441 | 0.536 | 0.683 | 0.645 | 0.599 | 0.435 | 0.842 | 0.847 | 0.879 | 0.589 | 0.572 | 1.02 | 1.14 | 1.28 | 1.02 | 0.986 | 1.36 | 1.08 | 1.34 | 1.37 | 1.07 |
| NCI-H460 | 0.379 | 0.393 | 0.396 | 0.629 | 0.373 | 0.478 | 0.42 | 0.589 | 0.443 | 0.465 | 0.508 | 0.641 | 0.672 | 0.69 | 0.43 | 0.651 | 0.531 | 0.564 | 0.589 | 0.476 |
| NCI-H596 | 0.632 | 0.716 | 0.871 | 0.917 | 0.819 | 0.463 | 0.395 | 0.481 | 0.465 | 0.512 | 0.985 | 1.31 | 1 | 1.2 | 1.09 | 1.09 | 1.09 | 1.12 | 1.07 | 1.04 |
| NCI-H647 | 0.235 | 0.338 | 0.266 | 0.223 | 0.211 | 1.48 | 1.14 | 1.33 | 1.18 | 0.794 | 0.27 | 0.281 | 0.513 | 0.512 | 0.372 | 0.555 | 0.376 | 0.567 | 0.403 | 0.176 |
| NCI-H650 | 0.844 | 0.733 | 0.639 | 0.599 | 0.369 | 1.19 | 1.06 | 1.29 | 1.17 | 0.885 | 1.12 | 1.07 | 0.891 | 1.23 | 1.09 | 1.25 | 0.835 | 1.03 | 0.968 | 0.848 |
| NCI-H727 | 0.56 | 0.556 | 0.56 | 0.673 | 0.407 | 0.59 | 0.478 | 0.698 | 0.595 | 0.295 | 0.788 | 0.533 | 0.667 | 0.626 | 0.618 | 0.627 | 0.403 | 0.562 | 0.619 | 0.476 |
| NCI-H838 | 0.265 | 0.266 | 0.329 | 0.265 | 0.264 | 1.01 | 0.89 | 1.06 | 1.08 | 0.914 | 0.889 | 0.891 | 0.907 | 0.92 | 0.836 | 0.939 | 0.907 | 0.94 | 0.952 | 0.888 |
| NCI-H1355 | 0.518 | 0.539 | 0.5 | 0.544 | 0.384 | 0.873 | 0.738 | 1.02 | 0.807 | 0.566 | 0.702 | 0.698 | 0.675 | 0.967 | 0.559 | 0.657 | 0.645 | 0.846 | 0.747 | 0.598 |
| NCI-H1395 | 0.809 | 0.717 | 0.747 | 0.744 | 0.627 | 0.993 | 0.998 | 1.1 | 1.18 | 0.823 | 0.392 |  | 0.379 | 0.428 | 0.389 | 0.374 | 0.375 | 0.397 | 0.396 | 0.327 |
| NCI-H1437 | 0.41 | 0.332 | 0.41 | 0.429 | 0.361 | 1.04 | 0.886 | 0.988 | 0.983 | 0.679 | 1.12 | 1.12 | 1.11 | 1.13 | 0.968 | 1.1 | 1 | 1.11 | 1.2 | 1.05 |
| NCI-H1651 | 0.622 | 0.712 | 0.613 | 0.788 | 0.585 | 1.03 | 0.772 | 1 | 0.93 | 0.817 | 0.428 | 0.463 | 0.533 | 0.509 | 0.471 | 0.502 | 0.442 | 0.534 | 0.398 | 0.349 |
| NCI-H1666 | 0.594 | 0.564 | 0.676 | 0.565 | 0.507 | 0.958 | 0.949 | 1.05 | 0.974 | 0.498 | 0.956 | 0.764 | 0.817 | 0.805 | 0.803 | 0.943 | 0.741 | 0.879 | 0.92 | 0.641 |
| NCI-H1734 | 0.256 | 0.257 | 0.23 | 0.216 | 0.202 | 0.754 | 0.654 | 0.773 | 0.813 | 0.596 | 0.443 | 0.658 | 0.615 | 0.566 | 0.514 | 0.521 | 0.433 | 0.462 | 0.312 | 0.182 |
| NCI-H1755 | 0.478 | 0.563 | 0.572 | 0.602 | 0.584 | 0.96 | 0.944 | 0.956 | 0.972 | 0.844 | 0.458 | 0.539 | 0.506 | 0.542 | 0.43 | 0.387 | 0.396 | 0.463 | 0.43 | 0.317 |
| NCI-H1793 | 0.321 | 0.237 | 0.325 | 0.293 | 0.375 | 0.796 | 0.41 | 0.658 | 0.627 | 0.546 |  | 0.391 | 0.58 | 0.513 | 0.306 | 0.406 | 0.31 | 0.477 | 0.648 | 0.211 |
| NCI-H1915 | 0.437 | 0.458 | 0.429 | 0.357 | 0.288 | 1.07 | 0.997 | 1.11 | 1.04 | 0.788 |  | 0.679 | 0.698 | 0.693 | 0.699 | 0.717 | 0.631 | 0.61 | 0.548 | 0.516 |
| NCI-H1944 | 0.268 | 0.213 | 0.275 | 0.236 | 0.17 | 0.819 | 0.682 | 0.799 | 0.756 | 0.514 | 0.541 | 0.557 | 0.603 | 0.466 | 0.456 | 0.503 | 0.466 | 0.44 | 0.311 | 0.198 |
| NCI-H1975 | 0.741 | 0.717 | 0.843 | 0.837 | 0.701 | 0.714 | 0.634 | 0.686 | 0.673 | 0.538 | 0.639 | 0.635 | 0.711 | 0.743 | 0.506 | 0.749 | 0.743 | 0.665 | 0.761 | 0.722 |
| NCI-H1993 | 0.592 | 0.517 | 0.624 | 0.53 | 0.502 | 0.742 | 0.751 | 0.766 | 0.671 | 0.639 | 0.664 | 0.749 | 1.03 | 1.01 | 0.7 | 0.811 | 0.87 | 0.855 | 0.704 | 0.428 |
| NCI-H2085 | 0.708 | 0.786 | 0.882 | 0.726 | 0.705 | 0.957 | 1.01 | 0.925 | 1.01 | 0.868 | 0.833 | 0.956 | 1.02 | 1.07 | 0.905 | 0.956 | 1.01 | 1.06 | 0.922 | 0.877 |
| NCI-H2087 | 0.292 | 0.243 | 0.233 | 0.195 | 0.223 | 1.02 | 1.02 | 0.979 | 1.05 | 0.783 | 1.42 | 1.39 | 1.41 | 1.45 | 1.06 | 1.32 | 1.46 | 1.28 | 1.24 | 0.815 |
